Tested on: parental DU145 cells that do not express PSMA
Assay: In vitro uptake of 99mTc tracers in parental DU145 cells
Format: cell-based
Settings: PSMA-negative DU145 cells, 1 h
Method: To compare the relative uptake and specificity of the new radiotracers for PSMA, [^99mTcO2(DP^Ph-PSMAt)2]^+, [^99mTcO2(DP^An-PSMAt)2]^+ and [^99mTcO2(DP^MEP-PSMAt)2]^+ (50 kBq) were purified from unreacted ^99mTc precursors and excess DP-PSMAt peptide, and each incubated with PSMA-expressing DU145-PSMA+ prostate cancer cells[33] or LNCaP prostate cancer cells (5 × 10^5 cells). After 1 h incubation, uptake of each radiotracer was quantified. […]
4.9 99mTc uptake in DU145, DU145-PSMA+ and LNCaP cells
The following experiment was performed in biological triplicate.
A panel of cell lines were selected that either expressed GCP(II)/PSMA (DU145-PSMA+ (genetically modified to express PSMA),12 and LNCaP (CRL‐1740)), or had low GCP(II)/PSMA expression (DU145 (HTB-81)). All cell lines were cultured in RPMI 1640 medium (R0883, Sigma) containing 10% foetal bovine serum, 2 mM L-glutamine, and 100 U mL−1 penicillin and 100 µg mL−1 streptomycin. Cells were maintained at 37 °C and 5% CO 2. Cells were seeded in 6-well plates at a density of 5 × 10^5 cells per well […]
in 2 mL complete media to achieve 70–80% confluency the following day. […] The cells were lysed with ice cold radioimmunoprecipitation assay buffer (RIPA buffer, 500 μL; 150 mM sodium chloride, 0.1% w/w sodium dodecyl sulfate (SDS), 0.5% w/w sodium deoxycholate (NaDOC), 1% w/w Triton-X) and samples were collected for radioactivity counting. […]

COc1ccc(P(/C(C(=O)O)=C(/C(=O)NCCOCCOCCOCCOCCC(=O)NCCCC[C@H](NC(=O)N[C@@H](CCC(=O)O)C(=O)O)C(=O)O)P(c2ccc(OC)cc2)c2ccc(OC)cc2)c2ccc(OC)cc2)cc1 [[^99mTcO2(DP^An-PSMAt)2]^+, metal not drawn]
uptake in parental DU145 cells: negligible uptake

COCCOc1ccc(P(/C(C(=O)O)=C(/C(=O)NCCOCCOCCOCCOCCC(=O)NCCCC[C@H](NC(=O)N[C@@H](CCC(=O)O)C(=O)O)C(=O)O)P(c2ccc(OCCOC)cc2)c2ccc(OCCOC)cc2)c2ccc(OCCOC)cc2)cc1 [[^99mTcO2(DP^MEP-PSMAt)2]^+, metal not drawn]
uptake in parental DU145 cells: negligible uptake

— article PMC12435366, “Maleic anhydride derived diphosphines: adaptable chelators for receptor-targeted ^99mTc, ^64Cu and ^188Re radiotracers” (Chemical Science, 2025)
